The values below come from patent publication US11834414B2, “1-methyl-4-[(4-phenylphenyl)sulfonylmethyl]cyclohexyanol and 1-methyl-4-[[4-(2-pyridyl)phenyl]sulfonylmethyl]cyclohexanol compounds and their therapeutic use” (Modern Biosciences Limited, priority 2018, dated 2023).

The term IC50 denotes the concentration that inhibits the measured activity by half.

One series deals with CYP1A2 (Homo sapiens (Human), UniProt P05177). The series can be described thus: Human Cytochrome P450 Inhibition Assay (Bactosomes).
For the next series, the target named is CYP2D6 (Homo sapiens (Human), UniProt P10635). Described as above. It is filed as in vitro ADME. As to conditions: recombinant Bactosomes, 10 minutes, 37° C.
Another series deals with hERG ion channel (Homo sapiens (Human), UniProt Q12809). Description: hERG Ion Channel Assay. In kind it is cell-based. As to conditions: for hERG cardiac safety profile (in words): compared to reference compounds such as ABD599 and ABD899; for IC50: hERG ion channel activity, hERG-CHO cells. As for the experimental part: When the ability of hERG to conduct electrical current across the cell membrane is inhibited or compromised, it can result in a potentially fatal disorder called long QT syndrome. This association between hERG and long QT syndrome has made hERG inhibition an important anti-target that must be avoided during drug development.
The activity of the compounds against the hERG ion channel was tested using two approaches: a binding assay and an automated patch-clamp, Q-patch method using stably transfected Chinese Hamster Ovary cells (hERG-CHO). hERG-CHO cells were cultured in F-12 Kaighn's Nutrient Mixture medium (Invitrogen)+10% FBS at 37° C. for 1-3 days. Cells were kept at 30° C. for 24 to 48 hours prior to patch clamping in order to increase the hERG current amplitude. Subsequently, the cells were harvested by trypsinisation, and kept in Serum Free Medium (SFM) in the Q-patch cell preparation state for up to 6 hours at room temperature before being washed and re-suspended in extracellular solution and applied to the patch clamp sites for data recording.
Patch-clamp voltage protocol: After whole cell configuration was achieved, the cell was held at −80 mV. A 50 millisecond pulse to −40 mV was delivered to measure the leaking current, which was subtracted from the tail current on-line. Then the cell was depolarized to +20 mV for 2 seconds, followed by a one second pulse to −40 mV to reveal hERG tail current. This paradigm was delivered once every 5 seconds to monitor the current amplitude.
Extracellular solution: 137 mM NaCl, 4 mM KCl, 1.8 mM CaCl2), 1 mM MgCl2, 10 mM D(+)-glucose, 10 mM HEPES buffer (pH adjusted to 7.4 with NaOH).
After the whole cell configuration was achieved, the extracellular solution (control) was applied first and the cell was stabilized for 2 minutes in extracellular solution. The test compound was then applied from low concentrations to high concentrations cumulatively. The cell was incubated with each test concentration for 5 minutes. During each incubation, the cell was repetitively stimulated using the voltage protocol described above, and the tail current amplitude was continuously monitored.
Acceptance Criteria: • (1) Peak tail current >100 pA in control. • (2) Initial run-down <30% and the run-down stops before first application of the test compound. • (3) Leak currents <50% of the control peak tail currents at any time. • (4) rs<20 MΩ throughout the experiment.
The degree of inhibition (%) was obtained by measuring the tail current amplitude, induced by a one second test pulse to −40 mV after a two second pulse to +20 mV, before and after incubation with the test compound. The difference in current was normalized to control and multiplied by 100 in order to obtain the percent inhibition.
Concentration (log) response curves were fitted to a logistic equation (three parameters assuming complete block of the current at very high test compound concentrations) to generate estimates of the 50% inhibitory concentration (IC50). The concentration-response relationship of each compound was constructed from the percentage reductions of current amplitude by sequential concentrations.

The test system of series [1] is cytochrome P450 (CYP450) enzymes.
The test system of series [2] is Thp1 human monocytic cells. Description: Thp1 Monocyte ATP Production Assay. As to conditions: for IC50: Homo sapiens, THP-1, 24 h, Thp1 cells, 24 hour incubation, ATPLite, 9-point range 10 μM to 10 nM, mean of 2 independent experiments. It is filed as cell-based. A digest of the protocol: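 Cells plated at 112500/well in glucose-free RPMI-1640 with 1% FBS and exposed to compound for 24 h at 37 °C/5% CO2. ATP quantified by luciferase luminescence (ATPlite) and expressed as % of control viability. IC50 from 4-parameter fit, mean of two experiments.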
Background: In ATP-based viability assays light output follows the ATP content of the culture.

The target of the next series is CYP2C19 (Homo sapiens (Human), UniProt P33261). Description: Human Cytochrome P450 Inhibition Assay (Bactosomes). It is filed as in vitro ADME. As to conditions: recombinant Bactosomes, 10 minutes, 37° C.

Bounds are passed on as bounds.

Chain of CYP2D6 (P10635 whole entry): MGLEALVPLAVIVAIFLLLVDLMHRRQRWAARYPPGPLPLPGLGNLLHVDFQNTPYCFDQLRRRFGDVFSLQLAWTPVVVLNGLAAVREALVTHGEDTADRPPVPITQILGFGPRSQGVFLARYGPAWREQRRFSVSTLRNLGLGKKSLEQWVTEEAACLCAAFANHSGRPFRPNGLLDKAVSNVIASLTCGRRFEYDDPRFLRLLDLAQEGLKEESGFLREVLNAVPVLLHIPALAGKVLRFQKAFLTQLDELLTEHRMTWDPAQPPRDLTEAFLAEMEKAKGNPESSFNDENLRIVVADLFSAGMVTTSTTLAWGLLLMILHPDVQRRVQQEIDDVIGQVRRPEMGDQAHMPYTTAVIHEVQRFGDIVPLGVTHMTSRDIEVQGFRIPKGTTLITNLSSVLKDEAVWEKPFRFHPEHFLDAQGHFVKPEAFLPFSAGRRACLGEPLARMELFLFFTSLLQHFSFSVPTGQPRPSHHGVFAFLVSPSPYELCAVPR
Chain of CYP2C19 (P33261 whole entry): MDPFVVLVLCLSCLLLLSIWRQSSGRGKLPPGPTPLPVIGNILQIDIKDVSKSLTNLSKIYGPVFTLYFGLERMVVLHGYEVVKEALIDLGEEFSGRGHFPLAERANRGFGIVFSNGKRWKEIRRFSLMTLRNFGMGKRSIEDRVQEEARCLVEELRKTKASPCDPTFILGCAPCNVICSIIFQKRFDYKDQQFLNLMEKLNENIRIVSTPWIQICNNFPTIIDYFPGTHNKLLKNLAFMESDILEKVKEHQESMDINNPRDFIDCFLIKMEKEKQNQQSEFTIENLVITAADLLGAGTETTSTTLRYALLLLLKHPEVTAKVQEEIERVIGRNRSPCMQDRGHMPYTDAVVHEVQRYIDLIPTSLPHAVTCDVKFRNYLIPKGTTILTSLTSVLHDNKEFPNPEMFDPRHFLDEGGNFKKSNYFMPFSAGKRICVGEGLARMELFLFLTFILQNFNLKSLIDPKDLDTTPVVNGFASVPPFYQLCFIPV
Chain of CYP1A2 (P05177 whole entry): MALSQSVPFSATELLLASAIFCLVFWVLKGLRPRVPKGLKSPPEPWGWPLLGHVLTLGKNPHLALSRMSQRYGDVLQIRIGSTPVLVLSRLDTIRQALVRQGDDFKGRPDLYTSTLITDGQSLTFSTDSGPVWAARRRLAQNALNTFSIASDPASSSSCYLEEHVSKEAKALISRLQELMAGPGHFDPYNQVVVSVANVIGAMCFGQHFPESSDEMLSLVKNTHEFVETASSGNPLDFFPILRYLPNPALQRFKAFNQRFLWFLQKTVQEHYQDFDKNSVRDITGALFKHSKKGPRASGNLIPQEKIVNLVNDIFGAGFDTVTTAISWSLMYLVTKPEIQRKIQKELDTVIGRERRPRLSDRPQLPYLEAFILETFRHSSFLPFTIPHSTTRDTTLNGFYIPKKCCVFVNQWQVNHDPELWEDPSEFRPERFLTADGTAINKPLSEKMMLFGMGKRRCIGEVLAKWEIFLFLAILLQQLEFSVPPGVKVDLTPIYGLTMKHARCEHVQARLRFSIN
Chain of hERG ion channel (Q12809 whole entry): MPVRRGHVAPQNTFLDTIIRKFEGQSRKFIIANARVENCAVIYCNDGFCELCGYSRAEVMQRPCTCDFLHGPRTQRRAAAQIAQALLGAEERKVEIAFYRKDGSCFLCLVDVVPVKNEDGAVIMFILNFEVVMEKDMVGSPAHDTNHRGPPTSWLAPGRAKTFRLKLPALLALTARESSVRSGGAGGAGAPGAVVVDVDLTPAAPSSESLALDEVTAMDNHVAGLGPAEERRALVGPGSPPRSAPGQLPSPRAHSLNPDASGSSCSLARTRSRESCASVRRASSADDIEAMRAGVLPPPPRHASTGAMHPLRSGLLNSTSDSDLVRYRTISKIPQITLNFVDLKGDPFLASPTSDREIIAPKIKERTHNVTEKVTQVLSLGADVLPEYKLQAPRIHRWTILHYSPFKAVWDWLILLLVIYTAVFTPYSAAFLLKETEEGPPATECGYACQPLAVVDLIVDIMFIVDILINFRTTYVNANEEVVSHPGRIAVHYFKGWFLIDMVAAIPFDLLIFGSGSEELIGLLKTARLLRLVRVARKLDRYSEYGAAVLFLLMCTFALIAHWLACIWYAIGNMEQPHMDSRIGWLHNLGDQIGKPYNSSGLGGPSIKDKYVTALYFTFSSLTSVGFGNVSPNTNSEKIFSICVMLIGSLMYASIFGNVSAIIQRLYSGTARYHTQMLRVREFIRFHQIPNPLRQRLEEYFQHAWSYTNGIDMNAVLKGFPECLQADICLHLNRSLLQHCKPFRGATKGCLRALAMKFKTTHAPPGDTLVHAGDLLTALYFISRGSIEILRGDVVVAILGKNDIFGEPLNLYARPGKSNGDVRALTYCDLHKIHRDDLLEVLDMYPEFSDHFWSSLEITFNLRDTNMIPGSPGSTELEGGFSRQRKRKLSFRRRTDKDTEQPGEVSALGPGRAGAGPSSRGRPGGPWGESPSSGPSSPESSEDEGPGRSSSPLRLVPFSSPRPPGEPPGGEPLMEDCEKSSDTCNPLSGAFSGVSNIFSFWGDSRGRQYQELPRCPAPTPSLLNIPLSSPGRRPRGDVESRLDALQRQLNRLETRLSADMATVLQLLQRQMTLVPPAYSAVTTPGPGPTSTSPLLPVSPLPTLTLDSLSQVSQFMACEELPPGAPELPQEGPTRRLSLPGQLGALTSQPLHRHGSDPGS

For the compound `C[C@]1(O)CC[C@@H](CS(=O)(=O)c2ccc(-c3ncc(F)cc3F)c(F)c2)CC1` [CHMSA-03-A, cis-4-(((4-(3,5-difluoropyridin-2-yl)-3-fluorophenyl)sulfonyl)methyl)-1-methylcyclohexan-1-ol], the IC50 against CYP1A2 was above 50 µM; on CYP2D6 it was above 50 µM; against hERG ion channel, above 100 µM; in series [2] it was 0.7 µM; at CYP2C19, above 50 µM. In addition, the “hERG cardiac safety profile (in words)” value at hERG ion channel was “particularly positive profile”. The “drug-drug interaction liability, CYP450 inhibition profile (in words)” value in series [1] is on record as “particularly good profile”.

On to `C[C@]1(O)CC[C@@H](CS(=O)(=O)c2ccc(-c3ccc(C#N)cc3F)cc2C(F)(F)F)CC1` [CHMSA-02-A, 2-fluoro-4′-(((cis-4-hydroxy-4-methylcyclohexyl)methyl)sulfonyl)-3′-(trifluoromethyl)-[1,1′-biphenyl]-4-carbonitrile], for which the IC50 against CYP1A2 was above 50 µM; on CYP2D6, above 50 µM; against hERG ion channel it was above 100 µM; in series [2], 0.1 µM; on CYP2C19, above 50 µM. The “hERG cardiac safety profile (in words)” value at hERG ion channel is on record as “particularly positive profile”. In series [1], the “drug-drug interaction liability, CYP450 inhibition profile (in words)” value was “particularly good profile”. Besides, in series [2] (compared to the reference compounds), the “potency in the Thp1 monocytic ATP assay (in words)” value is “excellent potency”.

With `C[C@]1(O)CC[C@@H](CS(=O)(=O)c2ccc(-c3ccc(C#N)cc3F)cc2)CC1` [CHMSA-01-A, 2-fluoro-4′-(((cis-4-hydroxy-4-methylcyclohexyl)methyl)sulfonyl)-[1,1′-biphenyl]-4-carbonitrile], the IC50 at CYP1A2 is above 50 µM; at CYP2D6 it was above 50 µM; at hERG ion channel, 24 µM; in series [2], 0.7 µM; at CYP2C19, above 50 µM. For the same compound, the “drug-drug interaction liability, CYP450 inhibition profile (in words)” value in series [1] is on record as “particularly good profile”.

Consider `C[C@]1(O)CC[C@H](NS(=O)(=O)c2ccc(-c3ccc(Cl)cc3C#N)cc2)CC1` [HMC-C-01-A, reference compound], for which the IC50 at CYP1A2 was 25 µM; on CYP2D6 it was 16.6 µM; in series [2], 0.63 µM; at CYP2C19, above 25 µM.
